Measurements from US11890288B2, “Sulfonamide or sulfinamide compound having effect of inducing BRD4 protein degradation and pharmaceutical use thereof” (MITSUBISHI TANABE PHARMA CORPORATION, priority 2020, dated 2024).

Legend:
[1] = tested on: human prostate cancer LNCaP cells; test: Cytotoxic action on LNCaP cells (WST-8, 96 hr); format: cell-based; conditions: 96 hr culture
How it was run: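 IC50 values reflect 50% cell survival relative to untreated cells, interpolated linearly between the two concentrations that bracket it. Survival was read by WST-8 after 96 hr of compound treatment of cells grown in 10% FBS/RPMI1640 at 37° C.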

[2] = molecular target: BRD4 protein (Homo sapiens (Human), UniProt O60885); test: BRD4 protein degradation inducing action in LNCaP cells (immunofluorescence, 6 hr); format: cell-based; conditions: anti-BRD4 fluorescence intensity
How it was run: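 Read-out is BRD4 immunofluorescence intensity (560/572 nm) after 6 hr compound treatment of LNCaP cells in 10% FBS/RPMI1640, with fixation, permeabilization and anti-BRD4 staining. Linear interpolation between the two concentrations flanking 50% of untreated intensity gives DC50.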

| SMILES | IC50 [1] [nM] | DC50 [2] [nM] |
| --- | --- | --- |
| CCc1ccc(NS(=O)(=O)c2ccc([C@@H](C)NC(=O)c3ccc(-c4ccc(C5=N[C@@H](CC(=O)OC(C)(C)C)c6nnc(C)n6-c6sc(C)c(C)c65)cc4)cc3)cc2)c2[nH]cc(C#N)c12 [Example Compound 136, t-butyl [(6S)-4-(4′-{[(1R)-1-{4-[(3-cyano-4-ethyl-1H-indol-7-yl)sulfamoyl]phenyl}ethyl]carbamoyl}[1,1′-biphenyl]-4-yl)-2,3,9-trimethyl-6H-thieno[3,2-f][1,2,4]triazolo[4,3-a][1,4]diazepin-6-yl]acetate] | 0.6 | 0.25 |
| CCc1ccc(NS(=O)(=O)c2ccc([C@@H](C)NC(=O)c3ccc(-c4ccc(C5=N[C@@H](CC(=O)OC)c6nnc(C)n6-c6sc(C)c(C)c65)cc4)c(F)c3F)cc2)c2[nH]cc(C#N)c12 [Example Compound 122, methyl [(6S)-4-(4′-{[(1R)-1-{4-[(3-cyano-4-ethyl-1H-indol-7-yl)sulfamoyl]phenyl}ethyl]carbamoyl}-2′,3′-difluoro[1,1′-biphenyl]-4-yl)-2,3,9-trimethyl-6H-thieno[3,2-f][1,2,4]triazolo[4,3-a][1,4]diazepin-6-yl]acetate] | 0.39 | 0.14 |
| COC(=O)C[C@@H]1N=C(c2ccc(-c3ccc(C(=O)N[C@H](C)c4ccc(S(=O)(=O)Nc5ccc(C)c6c(C#N)c[nH]c56)cc4)cc3)cc2)c2c(sc(C)c2C)-n2c(C)nnc21 [Example 26, methyl [(6S)-4-(4′-{[(1R)-1-{4-[(3-cyano-4-methyl-1H-indol-7-yl)sulfamoyl]phenyl}ethyl]carbamoyl}[1,1′-biphenyl]-4-yl)-2,3,9-trimethyl-6H-thieno[3,2-f][1,2,4]triazolo[4,3-a][1,4]diazepin-6-yl]acetate] | 0.1 | 0.14 |
| CCc1ccc(NS(=O)(=O)c2ccc([C@@H](C)NC(=O)c3ccc(-c4ccc(C5=N[C@@H](CC(=O)OC)c6nnc(C)n6-c6sc(C)c(C)c65)cc4)cn3)cc2)c2[nH]cc(C#N)c12 [Example 109, methyl {(6S)-4-[4-(6-{[(1R)-1-{4-[(3-cyano-4-ethyl-1H-indol-7-yl)sulfamoyl]phenyl}ethyl]carbamoyl}pyridin-3-yl)phenyl]-2,3,9-trimethyl-6H-thieno[3,2-f][1,2,4]triazolo[4,3-a][1,4]diazepin-6-yl}acetate] | 0.36 | 0.082 |
| Cc1sc2c(c1C)C(c1ccc(-c3ccc(C(=O)NCc4ccc(S(=O)(=O)Nc5ccc(C)c6c(C#N)c[nH]c56)cc4)cc3)cc1)=N[C@@H](CC(=O)NCCO)c1nnc(C)n1-2 [Example 37, N-({4-[(3-cyano-4-methyl-1H-indol-7-yl)sulfamoyl]phenyl}methyl)-4′-[(6S)-6-{2-[(2-hydroxyethyl)amino]-2-oxoethyl}-2,3,9-trimethyl-6H-thieno[3,2-f][1,2,4]triazolo[4,3-a][1,4]diazepin-4-yl][1,1′-biphenyl]-4-carboxamide] | 3 | 1.4 |
| Cc1sc2c(c1C)C(c1ccc(-c3cnc(C(=O)NCc4ccc(S(=O)(=O)Nc5ccc(C)c6c(C#N)c[nH]c56)cc4)nc3)cc1)=N[C@@H](CC(=O)OC(C)(C)C)c1nnc(C)n1-2 [Example Compound 147, t-butyl [(6S)-4-(4-{2-[({4-[(3-cyano-4-methyl-1H-indol-7-yl)sulfamoyl]phenyl}methyl)carbamoyl]pyrimidin-5-yl}phenyl)-2,3,9-trimethyl-6H-thieno[3,2-f][1,2,4]triazolo[4,3-a][1,4]diazepin-6-yl]acetate] | 0.42 | 0.13 |
| COC(=O)C[C@@H]1N=C(c2ccc(-c3ccc(C(=O)NCc4ccc(S(=O)(=O)Nc5ccc(OC)c6c(C#N)c[nH]c56)cc4)cc3)cc2)c2c(sc(C)c2C)-n2c(C)nnc21 [Example 15, methyl [(6S)-4-{4′-[({4-[(3-cyano-4-methoxy-1H-indol-7-yl)sulfamoyl]phenyl}methyl)carbamoyl][1,1′-biphenyl]-4-yl}-2,3,9-trimethyl-6H-thieno[3,2-f][1,2,4]triazolo[4,3-a][1,4]diazepin-6-yl]acetate] | 0.28 | 0.22 |
| CCc1ccc(NS(=O)(=O)c2ccc(CNC(=O)c3cnc(-c4ccc(C5=N[C@@H](CC(=O)OC)c6nnc(C)n6-c6sc(C)c(C)c65)cc4)cn3)cc2)c2[nH]cc(C#N)c12 [Example 105, methyl [(6S)-4-(4-{5-[({4-[(3-cyano-4-ethyl-1H-indol-7-yl)sulfamoyl]phenyl}methyl)carbamoyl]pyrazin-2-yl}phenyl)-2,3,9-trimethyl-6H-thieno[3,2-f][1,2,4]triazolo[4,3-a][1,4]diazepin-6-yl]acetate] | 0.13 | 0.054 |
| COC(=O)C[C@@H]1N=C(c2ccc(-c3ccc(C(=O)N[C@H](C)c4ccc(S(=O)(=O)Nc5ccc(C)c6c(C#N)c[nH]c56)cc4)nc3)cc2)c2c(sc(C)c2C)-n2c(C)nnc21 [Example 92, methyl {(6S)-4-[4-(6-{[(1R)-1-{4-[(3-cyano-4-methyl-1H-indol-7-yl)sulfamoyl]phenyl}ethyl]carbamoyl}pyridin-3-yl)phenyl]-2,3,9-trimethyl-6H-thieno[3,2-f][1,2,4]triazolo[4,3-a][1,4]diazepin-6-yl}acetate] | 0.087 | 0.041 |
| COC(=O)C[C@@H]1N=C(c2ccc(-c3ccc(C(=O)NCc4ccc(S(=O)(=O)Nc5ccc(C)c6c(C#N)c[nH]c56)cc4)c(F)c3)cc2)c2c(sc(C)c2C)-n2c(C)nnc21 [Example 2, methyl [(6S)-4-{4′-[({4-[(3-cyano-4-methyl-1H-indol-7-yl)sulfamoyl]phenyl}methyl)carbamoyl]-3′-fluoro[1,1′-biphenyl]-4-yl}-2,3,9-trimethyl-6H-thieno[3,2-f][1,2,4]triazolo[4,3-a][1,4]diazepin-6-yl]acetate] | 0.35 | 0.23 |
| Cc1sc2c(c1C)C(c1ccc(-c3cnc(C(=O)NCc4ccc(S(=O)(=O)Nc5ccc(C)c6c(C#N)c[nH]c56)cc4)cn3)cc1)=N[C@@H](CC(=O)OC(C)(C)C)c1nnc(C)n1-2 [Example Compound 148, t-butyl [(6S)-4-(4-{5-[({4-[(3-cyano-4-methyl-1H-indol-7-yl)sulfamoyl]phenyl}methyl)carbamoyl]pyrazin-2-yl}phenyl)-2,3,9-trimethyl-6H-thieno[3,2-f][1,2,4]triazolo[4,3-a][1,4]diazepin-6-yl]acetate] | 0.2 | 0.042 |
| Cc1sc2c(c1C)C(c1ccc(-c3ccc(C(=O)NCc4ccc(S(=O)(=O)Nc5ccc(C)c6c(C#N)c[nH]c56)cc4)cc3)cc1)=N[C@@H](CC#N)c1nnc(C)n1-2 [Example 73, N-({4-[(3-cyano-4-methyl-1H-indol-7-yl)sulfamoyl]phenyl}methyl)-4′-[(6S)-6-(cyanomethyl)-2,3,9-trimethyl-6H-thieno[3,2-f][1,2,4]triazolo[4,3-a][1,4]diazepin-4-yl][1,1-biphenyl]-4-carboxamide] | 1.7 | 0.75 |
| CCc1ccc(NS(=O)(=O)c2ccc([C@@H](C)NC(=O)c3ccc(-c4ccc(C5=N[C@@H](CC(=O)OC)c6nnc(C)n6-c6sc(C)c(C)c65)cc4)cc3C)cc2)c2[nH]cc(C#N)c12 [Example Compound 123, methyl [(6S)-4-(4′-{[(1R)-1-{4-[(3-cyano-4-ethyl-1H-indol-7-yl)sulfamoyl]phenyl}ethyl]carbamoyl}-3′-methyl[1,1′-biphenyl]-4-yl)-2,3,9-trimethyl-6H-thieno[3,2-f][1,2,4]triazolo[4,3-a][1,4]diazepin-6-yl]acetate] | 0.32 | 0.21 |
| COC(=O)C[C@@H]1N=C(c2ccc(-c3ccc(C(=O)NCc4ccc(S(=O)(=O)Nc5ccc(C)c6c(C#N)c[nH]c56)cc4)c(C)c3)cc2)c2c(sc(C)c2C)-n2c(C)nnc21 [Example 50, methyl [(6S)-4-{4′-[({4-[(3-cyano-4-methyl-1H-indol-7-yl)sulfamoyl]phenyl}methyl)carbamoyl]-3′-methyl[1,1′-biphenyl]-4-yl}-2,3,9-trimethyl-6H-thieno[3,2-f][1,2,4]triazolo[4,3-a][1,4]diazepin-6-yl]acetate] | 0.23 | 0.13 |
| COC(=O)C[C@@H]1N=C(c2ccc(-c3cnc(C(=O)NCc4ccc(S(=O)(=O)Nc5ccc(C)c6c(C#N)c[nH]c56)cc4)c(F)c3)cc2)c2c(sc(C)c2C)-n2c(C)nnc21 [Example 77, methyl [(6S)-4-(4-{6-[({4-[(3-cyano-4-methyl-1H-indol-7-yl)sulfamoyl]phenyl}methyl)carbamoyl]-5-fluoropyridin-3-yl}phenyl)-2,3,9-trimethyl-6H-thieno[3,2-f][1,2,4]triazolo[4,3-a][1,4]diazepin-6-yl]acetate] | 0.16 | 0.048 |
| CCc1ccc(NS(=O)(=O)c2ccc(CNC(=O)c3ccc(-c4ccc(C5=N[C@@H](CC(=O)OC)c6nnc(C)n6-c6sc(C)c(C)c65)cc4)c(Cl)c3)cc2)c2[nH]cc(C#N)c12 [Example Compound 116, methyl [(6S)-4-{2′-chloro-4′-[({4-[(3-cyano-4-ethyl-1H-indol-7-yl)sulfamoyl]phenyl}methyl)carbamoyl][1,1′-biphenyl]-4-yl}-2,3,9-trimethyl-6H-thieno[3,2-f][1,2,4]triazolo[4,3-a][1,4]diazepin-6-yl]acetate] | 0.65 | 0.42 |
| Cc1sc2c(c1C)C(c1ccc(-c3ccc(C(=O)NCc4ccc(S(=O)(=O)Nc5ccc(C)c6c(C#N)c[nH]c56)cc4)nc3)cc1)=N[C@@H](CC(=O)OC(C)(C)C)c1nnc(C)n1-2 [Example Compound 145, t-butyl [(6S)-4-(4-{6-[({4-[(3-cyano-4-methyl-1H-indol-7-yl)sulfamoyl]phenyl}methyl)carbamoyl]pyridin-3-yl}phenyl)-2,3,9-trimethyl-6H-thieno[3,2-f][1,2,4]triazolo[4,3-a][1,4]diazepin-6-yl]acetate] | 0.44 | 0.17 |
